Where “and” joins values, the source holds several entries; their conditions need not be identical. Equal entries are not always repeated.
Assays:
[1] = test system: cytokines and chemokines in PBMCs from HIV-infected donors; test: Induction of cytokines/chemokines ex vivo, Luminex (Example 211); assay type: cell-based, human; conditions: PBMC supernatant day 2
Experimental: PBMCs from HIV-infected donors on suppressive cART were isolated, as described previously, and immediately added to tissue culture plates pre-equilibrated at 37° C. with media containing DMSO or the compound of Example 49 (GS-9620) at concentrations from 0.1 nM or 10.0 uM. At day 2 after treatment, cell-free culture supernatants were collected and frozen at −80C for subsequent analysis. Frozen supernatants were thawed at room temperature, and the cytokines and chemokines indicated were quantitated with a custom multiplexed xMAP Luminex® assay following the manufacturer's instructions (Thermo Fisher Scientific Inc., Grand Island, N.Y., custom-designed kit).

[2] = test system: HIV in PBMCs from HIV-infected donors; human Interferon α/β receptor chain 2 blocked; test: HIV activation with and without IFNα/β receptor block (Example 212); assay type: cell-based; conditions: Example 49 10 nM to 10 uM with anti-IFNα/β receptor chain 2 mAb MMHAR-2 at 1:500; day 4; 4 donors; p<0.05
Experimental: PBMCs from HIV-infected donors on suppressive cART were isolated, as before, and treated with the compound of Example 49 (GS-9620) at the doses indicated (10 nM to 10 uM) in the presence or absence of a mouse monoclonal antibody (clone MMHAR-2) against the human Interferon α/β receptor chain 2 (PBL Assay Science, Piscataway, N.J., Cat #21385-1) used at 1:500 dilution. At day 4 after treatment, cell-free culture supernatant was collected and HIV viral RNA was quantitated using the AmliPrep/COBAS® TaqMan® assay. Fold HIV activation in PBMCs from two HIV-infected donors treated with the compound of Example 49 alone and in combination with the anti-IFNα/β mAB (IFNAR block) is depicted in FIG. 8.

SIVmac251 = test: TLR7 modulating compound in cART treated SIV+ rhesus with undetectable plasma viremia: plasma SIV RNA during dosing and after cART cessation (Example 204); assay type: in vivo, Indian rhesus macaques (Macaca mulatta); conditions: for Plasma SIV RNA: 0.3 mg/kg oral, on cART
Experimental: A group of 10 Indian rhesus macaques (Macaca mulatta) were treated with the compound of Example 4 or dosing vehicle of Example 201 (placebo group) in a multiple dose, dose escalation study. The macaques were infected with simian immunodeficiency virus (SIVmac251) by repeat low-dose rectal mucosal challenge. Beginning on day 65 post-infection, after establishment of peak viremia and an early viral chronic set point, the animals were treated with a the cART by sub-cutaneous injection at 1 mL/kg, the administration of which was for approximately one year. During the time of cART administration plasma viral loads decreased to undetectable levels (SIV gag RNA<50 copies/mL) by Day 168 post-infection, and were maintained for approximately 5 months prior to administration of the compound of Example 4 by use of daily cART. In addition, animals were maintained on the same cART regimen when dosed with the compound of Example 4. The amount of antiretrovirals administered to each animal, on a daily basis, in the cART formulation were 20 mg/kg tenofovir, 50 mg/kg emtricitibine (FTC), and 2.5 mg/kg dolutegravir. The animals were administered cART daily from approximately day 65 post-infection, through viral suppression and administration of the compound of Example 4 until approximately two weeks post-last dose of the compound from Example 4 at which time cART was stopped to monitor plasma viral load rebound kinetics.
Beginning on Day 317 post-infection, the animals were dosed once every other week with either the compound of Example 4 or dosing vehicle of Example 201 (placebo group). Four animals were dosed with the compound of Example 4, prepared as described in Example 201. The first week, 1 mL/kg of the 0.1 mg/mL formulation was dosed, corresponding to a dose of 0.1 mg/kg. The third week, 1 mL/kg of the 0.2 mg/mL formulation was dosed, corresponding to a dose of 0.2 mg/kg. On weeks five through thirteen, 1 mL/kg of the 0.3 mg/mL formulation was dosed, corresponding to a dose of 0.3 mg/kg (seven doses in total). The other six animals were controls, of which three were given seven doses of saline by oral gavage once every two weeks; the other three animals were left untreated. Approximately two weeks following the last dose of the compound of Example 4, cART was stopped in the three saline-dosed placebo animals and the four animals who had received the compound of Example 4. Approximately one month later, cART was stopped in the three untreated control animals. Following cART cessation viral loads were monitored for a period of six months.
Each formulation of the compound of Example 4 or dosing vehicle of Example 201 was thawed at room temperature prior to dosing. Animals were dosed by oral gavage via nasogastric tube.
Plasma viral loads (expressed as SIV RNA copies per mL of plasma) were determined by quantitative RT-PCR of the SIV RNA measuring the gag gene transcripts at various times throughout the study. Viral loads for each animal for each study day relative to time of administration of the first dose of the compound of Example 4 are depicted in FIG. 3; dosing days are shown by the arrows on the horizontal x-axis.
After two weeks following the last dose of study drug, cART therapy was also stopped in all dosed (placebo dosed included) animals. In the untreated control group of animals, cART was stopped 30 days later. Table 2 denotes the average viral load chronic set point from day 42-81 following cessation of cART for each of the animals in the study. […] However, when comparing the pre-cART plasma SIV RNA chronic set point to the post-cART cessation chronic set point within the animals administered the compound of Example 4 this was approximately ˜0.5 log10 lower (mean change for all animals treated with the compound of Example 4) than the change observed in those animals in the placebo group (mean change for all animals administered dosing vehicle of Example 201).

CCCCOc1nc(N)c2c(n1)N(Cc1cccc(CN3CCCC3)c1)CC(=O)N2 [Example 49]
BAFF fold induced vs. DMSO control [1]: <2-fold | I-TAC fold induced vs. DMSO control [1]: >100-fold | IFNα fold induced vs. DMSO control [1]: >100-fold | IFNβ fold induced vs. DMSO control [1]: <2-fold | IFNω fold induced vs. DMSO control [1]: >100-fold | IL-1 RA fold induced vs. DMSO control [1]: >100-fold | IL-4 fold induced vs. DMSO control [1]: <2-fold | IL-5 fold induced vs. DMSO control [1]: <2-fold | IL-6 fold induced vs. DMSO control [1]: >100-fold | IL-10 fold induced vs. DMSO control [1]: >100-fold | IL-12 (p70) fold induced vs. DMSO control [1]: <2-fold | IL-13 fold induced vs. DMSO control [1]: <2-fold | IL-17 fold induced vs. DMSO control [1]: <2-fold | IL-18 fold induced vs. DMSO control [1]: <2-fold | IL-27 fold induced vs. DMSO control [1]: <2-fold | IL-31 fold induced vs. DMSO control [1]: <2-fold | IP-10 fold induced vs. DMSO control [1]: >100-fold | MCP-1 fold induced vs. DMSO control [1]: >100-fold | MIP-1α fold induced vs. DMSO control [1]: >100-fold | MIP-1β fold induced vs. DMSO control [1]: >100-fold | MMP-1 fold induced vs. DMSO control [1]: <2-fold | SCD40L fold induced vs. DMSO control [1]: <2-fold | TNFS10 fold induced vs. DMSO control [1]: <2-fold | mean maximal reduction of fold HIV activation by IFNAR block [2]: 85%

CCCCOc1nc(N)c2c(n1)N(Cc1ccc(CN3CCCC3)cc1)CC(=O)N2 [Example 4]
Plasma SIV RNA (SIVmac251; Dose 4, 1 day post-dose): <50 copies/mL | Plasma SIV RNA (SIVmac251; Dose 4, 3 days post-dose): <50 copies/mL | Plasma SIV RNA (SIVmac251; Dose 4, 7 days post-dose): <50 copies/mL | Plasma SIV RNA (SIVmac251; Dose 4, Pre): <50 copies/mL | Plasma SIV RNA (SIVmac251; Dose 5, 2 days post-dose): 344 copies/mL and 361 copies/mL and 563 copies/mL and 623 copies/mL | Plasma SIV RNA (SIVmac251; Dose 5, 7 days post-dose): <50 copies/mL | Plasma SIV RNA (SIVmac251; Dose 5, Pre): <50 copies/mL | Plasma SIV RNA (SIVmac251; Dose 6, 7 days post-dose): <50 copies/mL | Plasma SIV RNA (SIVmac251; Dose 6, Pre): <50 copies/mL | Plasma SIV RNA (SIVmac251; Dose 7, 7 days post-dose): <50 copies/mL | Plasma SIV RNA (SIVmac251; Dose 7, Pre): <50 copies/mL | time virus levels remained undetectable after the last dose (SIVmac251; SIV+ rhesus on cART): 13 days | plasma virus levels returned to baseline prior to the following dose (SIVmac251; SIV+ rhesus on cART, 0.3 mg/kg doses): < 50 copies per mL | time after dose at which detectable plasma virus was observed (SIVmac251; SIV+ rhesus on cART, after each of the last three doses at 0.3 mg/kg, oral, once every other week): 24 to 72 h | pre-cART to post-cART cessation plasma SIV RNA chronic set point change, lower than the change in the placebo group (SIVmac251; mean change for all treated animals, set point day 42-81 following cessation of cART): ~0.5 log10 | Mean Change in Chronic Set Point (SIVmac251; mean of the four dosed animals): −1.26 -log10 copy/mL | Plasma SIV RNA Chronic Set Point Day 42-81 Post-cART Cessation (SIVmac251; per animal, after seven doses (0.1, 0.2, 0.3 mg/kg) every other week): 3,553 copy/mL and 10,062 copy/mL and 20,146 copy/mL and 24,527 copy/mL | Plasma SIV RNA Chronic Set Point Day 42-63 Pre-cART (SIVmac251; per animal, baseline before cART and before dosing): 237,667 copy/mL and 76,833 copy/mL and 156,333 copy/mL and 666,333 copy/mL | Change in Chronic Set Point (SIVmac251; per animal, post-cART cessation versus pre-cART): −1.83 -log10 copy/mL and −0.88 -log10 copy/mL and −0.89 -log10 copy/mL and −1.43 -log10 copy/mL

Source: patent US11116774B2, “Modulators of toll-like receptors for the treatment of HIV” (Gilead Sciences, Inc., priority 2014, dated 2021)
